In ChEMBL document CHEMBL3046024, “Ligand-based in silico 3D-QSAR study of PPAR- agonists” (Med Chem Res, 2011):

Experiments:
[1] = target: T1, Peroxisome proliferator-activated receptor gamma (Homo sapiens, UniProt P37231); assay: Transactivation activity at PPARgamma (unknown origin)
T1 sequence (P37231 whole entry): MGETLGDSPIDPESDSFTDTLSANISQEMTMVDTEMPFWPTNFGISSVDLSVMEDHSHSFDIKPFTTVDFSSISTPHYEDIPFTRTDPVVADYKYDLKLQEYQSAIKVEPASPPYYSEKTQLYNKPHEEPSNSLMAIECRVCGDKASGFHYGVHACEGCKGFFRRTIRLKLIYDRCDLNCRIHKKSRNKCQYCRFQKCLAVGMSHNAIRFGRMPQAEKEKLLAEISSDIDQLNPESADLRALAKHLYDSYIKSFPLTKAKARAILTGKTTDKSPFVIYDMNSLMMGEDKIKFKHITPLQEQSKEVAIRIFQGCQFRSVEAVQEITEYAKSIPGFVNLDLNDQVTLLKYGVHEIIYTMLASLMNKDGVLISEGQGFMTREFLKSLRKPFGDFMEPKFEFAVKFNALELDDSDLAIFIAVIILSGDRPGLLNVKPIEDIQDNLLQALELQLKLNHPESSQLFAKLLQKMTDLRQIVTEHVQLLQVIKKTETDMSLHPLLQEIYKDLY

[2] = target: T1, Peroxisome proliferator-activated receptor gamma; assay: Transactivation activity at Homo sapiens (human) PPARgamma

Row | SMILES | EC50 [1] | EC50 [2]
1 | COC(=O)CN1C(=O)S/C(=C\c2ccc(O)cc2)C1=O | 10 µM | 
2 | CCOC(=O)CN1C(=O)S/C(=C\c2ccc(Cl)cc2)C1=O | 8 µM | 
3 | CCOC(=O)CN1C(=O)S/C(=C\c2ccc(C(F)(F)F)cc2)C1=O | 10 µM | 
4 | O=C1NC(=O)C(Cc2ccc3c(c2)CC[C@H](Cc2ccccc2)O3)S1 (stereo not given in full) [ENGLITAZONE] |  | 1 µM
5 | C/C(=N\OCCOc1ccc(CC2SC(=O)NC2=O)cc1)c1ccc(-c2ccccc2)cc1 (stereo not given) | > 0.4 µM | 
6 | CCOC(=O)CN1C(=O)S/C(=C\c2cccc([N+](=O)[O-])c2)C1=O | 11 µM | 
7 | CCCc1cc(Oc2ccccc2)ccc1OCCCCOc1ccc(C2SC(=O)NC2=O)cc1 (stereo not given) |  | 1 µM
8 | CCOC(=O)CN1C(=O)S/C(=C\c2ccc(C)cc2)C1=O | 9 µM | 

Results, then the compound that gave them:

Row | EC50 [1] | EC50 [2] | SMILES
9 | 8 µM |  | CCOC(=O)CN1C(=O)SC(Cc2ccc(N)cc2)C1=O (stereo not given)
10 | 11 µM |  | CCOC(=O)CN1C(=O)S/C(=C\c2ccc(OCCBr)cc2)C1=O
11 | 12 µM |  | CCOC(=O)CN1C(=O)SC(Cc2ccc(OCCBr)cc2)C1=O (stereo not given)
12 | 7 µM |  | CCOC(=O)CN1C(=O)S/C(=C\c2ccc(OC)cc2)C1=O
13 | 10 µM |  | CCOC(=O)CN1C(=O)SC(Cc2ccc(F)cc2)C1=O (stereo not given)
14 | 9 µM |  | CCOC(=O)CN1C(=O)SC(Cc2ccc(C(F)(F)F)cc2)C1=O (stereo not given)
15 | 9 µM |  | COC(=O)CN1C(=O)SC(Cc2ccc(O)cc2)C1=O (stereo not given)
